From patent publication US10112933B2, “Methods and compositions for treatment of fibrosis” (Baylor College of Medicine, priority 2013, dated 2018)

Key:
Stat3:hSIE complex = target: T1, Stat3:hSIE complex (Homo sapiens, UniProt P40763); assay: Electrophoretic mobility shift assay (Stat3 DNA binding, hSIE probe); type: biochemical; conditions: extracts of IL-6-stimulated HepG2 cells, compound 300 μM
T1 construct: endogenous in cells; host or cells: HepG2
Procedure: Electrophoretic mobility shift assays were performed using whole-cell extracts prepared from HepG2 cells without and with stimulation with IL-6 (30 ng/ml) for 30 min. Protein (20 μg) was incubated with radiolabeled duplex oligonucleotide (hSIE) and DMSO without or with the indicated compounds (300 uM) for 60 minutes at 37° C. then separated by PAGE. The gel was dried and autoradiographed; the portion of the gel corresponding to the Stat3-bound hSIE band is shown. Data shown are representative of 2 studies.
Electrophoretic Mobility Shift Assay (EMSA): EMSA was performed using the hSIE radiolabeled duplex oligonucleotide as a probe as described (Tweardy et al., 1995). Briefly, high salt extracts were prepared from HepG2 cells incubated without or with IL-6 (30 ng/ml) for 30 minutes. Protein concentration was determined by Bradford Assay and 20 ug of extract was incubated with compound (300 uM) for 60 minutes at 37° C. […] Gels were dried and autoradiographed.
Once in the nucleus, Stat3 dimers bind to specific DNA elements to activate and, in some instances, repress gene transcription. […] Compounds that bind to the phosphopeptide-binding site of Stat3 might be expected to do the same. […]

Stat1 (pY701) = target: T2, Stat1 (pY701) (Homo sapiens, UniProt P42224); assay: Immunoblot: IFN-γ-mediated phosphorylation of Stat1 in HepG2 cells; type: cell-based; conditions: HepG2, compound 300 μM, 1 hour
T2 construct: endogenous in cells; host or cells: HepG2
T2 sequence (P42224 1-750): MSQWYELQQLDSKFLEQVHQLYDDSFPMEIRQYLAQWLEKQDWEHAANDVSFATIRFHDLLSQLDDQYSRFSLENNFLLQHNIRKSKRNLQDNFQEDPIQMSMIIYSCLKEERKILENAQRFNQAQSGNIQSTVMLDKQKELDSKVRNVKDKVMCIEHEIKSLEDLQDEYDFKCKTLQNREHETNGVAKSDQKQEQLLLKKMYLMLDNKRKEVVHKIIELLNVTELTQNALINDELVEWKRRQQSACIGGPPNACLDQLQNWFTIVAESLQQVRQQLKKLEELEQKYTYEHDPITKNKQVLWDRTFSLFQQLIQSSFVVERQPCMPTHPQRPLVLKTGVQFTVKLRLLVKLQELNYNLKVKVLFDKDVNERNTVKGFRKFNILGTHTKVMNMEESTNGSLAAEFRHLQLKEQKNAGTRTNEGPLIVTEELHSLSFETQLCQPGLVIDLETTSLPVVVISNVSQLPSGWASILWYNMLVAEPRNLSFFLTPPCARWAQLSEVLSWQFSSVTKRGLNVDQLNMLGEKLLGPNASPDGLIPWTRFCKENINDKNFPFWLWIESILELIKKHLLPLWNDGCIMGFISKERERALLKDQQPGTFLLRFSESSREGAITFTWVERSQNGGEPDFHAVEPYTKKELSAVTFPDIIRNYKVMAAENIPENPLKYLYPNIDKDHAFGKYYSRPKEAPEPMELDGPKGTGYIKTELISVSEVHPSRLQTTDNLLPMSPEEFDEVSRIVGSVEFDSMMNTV
Procedure: HepG2 cells were pretreated with DMSO alone or DMSO containing each of the compounds at a concentration of 300 μM for 60 min. Cells were then stimulated with IFN-γ (30 ng/ml) for 30 min. Protein extracts of cells were separated by SDS-PAGE and immunoblotted serially with antibodies to pStat1, total Stat1 and β-actin. Blots were stripped between each immunoblotting. The results shown are representative of 2 or more experiments.
Immunoblot assay. The human hepatocellular carcinoma cell line (HepG2) was grown in 6-well plates under standard conditions. Cells were pretreated with compounds (0, 1, 3, 10, 30, 100 and 300 uM) for 1 hour then stimulated under optimal conditions with either interferon gamma (IFN-γ; 30 ng/ml for 30 min) to activate Stat1 or interleukin-6 (IL-6; 30 ng/ml for 30 min) to activate Stat3 (30-31). Cultures were then harvested and proteins extracted using high-salt buffer, as described (Shao et al., 2006). Briefly, extracts were mixed with 2× sodium dodecyl sulfate (SDS) sample buffer (125 mmol/L Tris-HCL pH 6.8; 4% SDS; 20% glycerol; 10% 2-mercaptoethanol) at a 1:1 ratio and heated for 5 minutes at 100° C. Proteins (20 μg) were separated by 7.5% SDS-PAGE and transferred to polyvinylidene fluoride (PVDF) membrane (Millipore, Waltham, Mass.) and immunoblotted. Prestained molecular weight markers (Biorad, Hercules, Calif.) were included in each gel. Membranes were probed serially with antibody against Stat1 pY^701 or Stat3 pY^705 followed by antibody against Stat1 or Stat3 (Transduction labs, Lexington, Ky.) then antibody against β-actin (Abcam, Cambridge, Mass.). Membranes were stripped between antibody probing using Restore™ Western Blot Stripping Buffer (Thermo Fisher Scientific Inc., Waltham, Mass.) per the manufacturer's instructions. Horseradish peroxidase-conjugated goat-anti-mouse IgG was used as the secondary antibody (Invitrogen Carlsbad, Calif.) and the membranes were developed with enhanced chemiluminescence (ECL) detection system (Amersham Life Sciences Inc.; Arlington Heights, Ill.).
EXP IIC. Ligand-mediated pStat3 and pStat1 inhibition assays. […] Briefly, human hepatocellular carcinoma cells (HepG2) are grown in 6-well plates and pretreated with compounds (0, 0.1, 0.3, 1, 3, 10, 30, 100 μM) for 1 hour then stimulated under optimal conditions with either interleukin-6 (IL-6; 30 ng/ml for 30 min) to activate Stat3 or interferon gamma (IFN-γ; 30 ng/ml for 30 min) to activate Stat1. Cells are harvested and proteins extracted using high-salt buffer, mixed with 2× sodium dodecyl sulfate (SDS) sample buffer (125 mmol/L Tris-HCL pH 6.8; 4% SDS; 20% glycerol; 10%2-mercaptoethanol) at a 1:1 ratio then heated for 5 minutes at 100° C. Proteins (20 μg) are separated by 7.5% SDS-PAGE and transferred to polyvinylidene fluoride (PVDF) membrane (Millipore, Waltham, Mass.) and immunoblotted. Membranes are probed serially with antibody against Stat1 pY701 or Stat3 pY705 followed by antibody against Stat1 or Stat3 (Transduction labs, Lexington, Ky.) then antibody against β-actin (Abcam, Cambridge, Mass.). Membranes are stripped between antibody probings using Restore™ Western Blot Stripping Buffer (Thermo Fisher Scientific Inc., Waltham, Mass.) per the manufacturer's instructions. Horseradish peroxidase-conjugated goat-anti-mouse IgG is used as the secondary antibody (Invitrogen Carlsbad, Calif.) and the membranes are developed with enhanced chemiluminescence (ECL) detection system (Amersham Life Sciences Inc.; Arlington Heights, Ill.). Band intensities are quantified by densitometry. The value of each pStat3 band is divided by its corresponding total Stat3 band intensity; the results are normalized to the DMSO-treated control value. This value was plotted as a function of the log compound concentration. The best-fitting curve is determined using 4-Parameter Logistic Model/Dose Response/XLfit 4.2, IDBS software and was used to calculate the IC50 value.

T1 sequence (P40763 2-770 limits assumed, one chain of several): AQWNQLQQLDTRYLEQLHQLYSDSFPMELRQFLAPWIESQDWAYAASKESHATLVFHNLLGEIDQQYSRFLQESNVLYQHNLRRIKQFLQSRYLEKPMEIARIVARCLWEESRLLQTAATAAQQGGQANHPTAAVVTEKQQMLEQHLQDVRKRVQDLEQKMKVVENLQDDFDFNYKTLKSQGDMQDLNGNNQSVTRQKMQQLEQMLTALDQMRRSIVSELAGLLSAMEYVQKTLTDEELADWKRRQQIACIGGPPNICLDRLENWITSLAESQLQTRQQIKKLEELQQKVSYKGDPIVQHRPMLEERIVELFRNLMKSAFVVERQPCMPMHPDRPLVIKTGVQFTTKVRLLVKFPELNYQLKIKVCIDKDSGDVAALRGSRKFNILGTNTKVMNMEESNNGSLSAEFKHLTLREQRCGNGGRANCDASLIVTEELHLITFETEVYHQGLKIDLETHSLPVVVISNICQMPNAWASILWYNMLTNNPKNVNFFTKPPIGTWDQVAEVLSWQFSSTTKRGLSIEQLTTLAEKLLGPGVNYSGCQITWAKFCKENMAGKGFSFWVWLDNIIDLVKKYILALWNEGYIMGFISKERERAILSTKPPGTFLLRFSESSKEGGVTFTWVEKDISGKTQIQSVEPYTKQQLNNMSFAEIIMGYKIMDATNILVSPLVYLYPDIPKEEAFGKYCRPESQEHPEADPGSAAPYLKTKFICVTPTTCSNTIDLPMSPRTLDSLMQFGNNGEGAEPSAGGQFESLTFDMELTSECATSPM

| SMILES | amount of hSIE shifted (Stat3:hSIE band intensity) (Stat3:hSIE complex) | Stat1 phosphorylation after IFN-γ stimulation (Stat1 (pY701)) |
| --- | --- | --- |
| O=C(O)c1ccc(C=CC(=O)c2ccc3c(c2)OCCO3)cc1 [Cpd3, 4-[3-(2,3-dihydro-1,4-benzodioxin-6-yl)-3-oxo-1-propen-1-yl]benzoic acid] | reduced the amount of hSIE shifted by half or greater | did not |
| CCOc1cc(C=C2C(=O)c3ccccc3C2=O)cc(Cl)c1OCc1cccc(C(=O)O)c1 [Cpd3-2, 3-({2-chloro-4-[(1,3-dioxo-1,3-dihydro-2H-inden-2-ylidene)methyl]-6-ethoxyphenoxy}methyl)benzoic acid] |  | did not |
| CCN1C(=O)C(=Cc2ccc(-c3cc(C(=O)O)ccc3Cl)o2)C(=O)N(CC)C1=S [Cpd30-12, 4-chloro-3-{5-[(1,3-diethyl-4,6-dioxo-2-thioxotetrahydro-5(2H)-pyrimidinylidene)methyl]-2-furyl}benzoic acid] |  | blocked Stat1 phosphorylation |
